# pIC50: −log10 of the molar value.
# Molecular target: Histone-lysine N-methyltransferase ASH1L (Homo sapiens, UniProt Q9NR48)
# Assay: Inhibition of MOCR-fused ASH1L SET-BAH ( 2069 to 2833 amino acids) (unknown origin) expressed as in Escherichia coli BL21 (DE3) T1R cells using SAM and chicken mono/dinucleosomes incubated for 1 hr by scintillation counting assay
row,Structure (SMILES),pIC50
1,NC(=S)c1cc(-c2cccc3[nH]ccc23)ccc1O,< 4.00
2,Cc1ccc(C(N)=S)cc1-c1cn(C2CCOCC2)c2cc(N)ccc12,4.00 to 4.70
3,NCc1ccc(-c2cccc(C(N)=S)c2)cc1,< 4.00
4,NCCOCCOc1ccc(-c2cccc(C(N)=S)c2)c2cc[nH]c12,4.00 to 4.70
5,Cc1cc(C)n2c1C=C1C=CC(CCCCC(=O)NCCOCCOc3ccc(-c4cccc(C(N)=S)c4)c4cc[nH]c34)=[N+]1[B-]2(F)F,< 4.00
6,Cc1cc2c(-c3cccc(C(N)=S)c3)cccc2n1C,< 4.00
7,NC(=S)c1cccc(-c2cccc3nc(N)sc23)c1,4.00 to 4.70
8,NC(=S)c1cccc(-c2ccc(O)cc2)c1F,< 4.00
9,CSC(=N)c1cccc(-c2ccccc2)c1,< 4.00
10,CC(O)COC(C)Cn1cc(-c2cccc(C(N)=S)c2)c2ccccc21 (stereo unspecified),4.00 to 4.70
11,Cc1c(O)ccc(-c2cncc(C(N)=S)c2)c1C,< 4.00
12,NC(=S)c1cccc(-c2c[nH]c3cccc(O)c23)c1,< 4.00
13,NC(=S)c1nccs1,< 4.00
14,NC(=S)c1cccc(-c2cn(CCC(O)C(F)(F)F)c3cc(N)ccc23)c1 (stereo unspecified),4.00 to 4.70
15,Cc1cc2c(-c3cccc(C(N)=S)c3)cccc2[nH]1,< 4.00
16,NC(=S)c1cccc(-c2cn(CC(CO)(C(F)F)C(F)F)c3cc(C(O)CC(F)F)ccc23)c1 (stereo unspecified),> 4.70
17,NC(=S)c1cccc(-c2cn(CCC(F)(F)F)c3cc(N)ccc23)c1,> 4.70

# Second part, the molecule after the results:
row,pIC50,Structure (SMILES)
1,> 4.70,NC(=S)c1cccc(-c2cn(C3CCN(S(=O)(=O)CCCNC(=O)c4ccc5c(c4)C(=O)OC54c5ccc(O)cc5Oc5cc(O)ccc54)CC3)c3cc(CNc4nnc(N)s4)ccc23)c1
2,> 4.70,NC(=S)c1cccc(-c2cn(Cc3ccc[nH]3)c3cc(CO)ccc23)c1
3,> 4.70,CCCS(=O)(=O)N1CCC(n2cc(-c3cccc(C(N)=S)c3)c3ccc(CNC(=O)COc4cccc5c4C(=O)N(C4CCC(=O)NC4=O)C5=O)cc32)CC1 (stereo unspecified)
4,> 4.70,Cc1c(CO)ccc2c(-c3cccc(C(N)=S)c3)cn(CCCC(F)(F)F)c12
5,> 4.70,NC(=S)c1cccc(-c2cn(CCC3CC3)c3cc(CO)ccc23)c1
6,> 4.70,NC(=S)c1cccc(-c2cn(CC(F)(F)F)c3cc(NCC(F)(F)F)ccc23)c1
7,> 4.70,NC(=S)c1cccc(-c2cn(C3CCNCC3)c3cc(N)ccc23)c1
8,> 4.70,NC(=S)c1cccc(-c2cn(CC(O)CO)c3cc(N)ccc23)c1 (stereo unspecified)
9,> 4.70,NC(=S)c1ccc(-c2cn(CCC(F)F)c3cc(CO)ccc23)[nH]1
10,> 4.70,NC(=S)c1cccc(-c2cn(CCCC(F)(F)F)c3cc(CNC(=O)c4c[nH]cn4)ccc23)c1
11,> 4.70,NC(=S)c1cccc(-c2cn(CCC(F)F)c3cc(CNCCOCCOCCOCCNc4cccc5c4C(=O)N(C4CCC(=O)NC4=O)C5=O)ccc23)c1 (stereo unspecified)
12,> 4.70,CS(=O)(=O)N1CCC(n2cc(-c3cccc(C(N)=S)c3)c3ccc(Nc4nccs4)cc32)CC1
13,> 4.70,NC(=S)c1cccc(-c2ccc(CCC(F)F)c3[nH]c(CO)cc23)c1
14,> 4.70,Nc1ccc2c(-c3ccc4ccnc(N)c4c3)cn(CCC(F)F)c2c1
15,> 4.70,NC(=S)c1cccc(-n2cc(N3CCCCC3)c3cc(CO)ccc32)c1
16,> 4.70,NC(=S)c1cccc(-c2cn(CC(C(F)F)C(F)F)c3cc(C(O)CCF)ccc23)c1 (stereo unspecified)
17,> 4.70,NC(=S)c1cccc(-c2cn(CCCC(F)(F)F)c3cc(CNCc4cccnc4)ccc23)c1
18,4.89,NCc1ccc2c(-c3cccc(C(N)=S)c3)cn(CCO)c2c1
19,> 4.70,CCCS(=O)(=O)N1CCC(n2cc(-c3cccc(C(N)=S)c3)c3ccc(CNc4c[nH]c(C)n4)cc32)CC1
20,> 4.70,NCc1ccc2c(-c3cccc(C(N)=S)c3)cn(C3CCOCC3)c2c1
21,> 4.70,CCOc1c[nH]c(CC(=O)NCc2ccc3c(-c4cccc(C(N)=S)c4)cn(C4CCN(S(C)(=O)=O)CC4)c3c2)c1
22,> 4.70,NC(=S)c1cc(-c2cn(CCC(F)F)c3cc(CO)ccc23)c2cc[nH]c2c1
23,> 4.70,CCCS(=O)(=O)N1CCC(n2cc(-c3cccc(C(N)=S)c3)c3ccc(CNc4nnc(N)s4)cc32)CC1
24,> 4.70,NC(=S)c1cccc(-c2cn(Cc3cnc[nH]3)c3cc(CO)ccc23)c1
